Tests used:
[1] = tested on: HEK293; assay: Downregulation of human ERG mRNA expression in HEK293 cells at 30 uM after 24 hrs by RT-PCR analysis; format: ADME, cell-based; settings: hek293, 24 h
[2] = Cmax in dog at 30 uM, iv administered as bolus dose; format: ADME, organism-based, Canis lupus familiaris; parameters: dose 30 uM, route intravenous; settings: in vivo
[3] = tested on: HEK293; assay: Downregulation of human ERG expression in HEK293 cells assessed as decrease in intensity of 155 kDa band at 30 uM after 24 hrs by Western blot analysis; format: ADME, cell-based; settings: hek293, 24 h
[4] = tested on: HEK293; assay: Downregulation of human ERG mRNA expression in HEK293 cells at 30 uM after 24 hrs by qRT-PCR analysis; format: ADME, cell-based; settings: hek293, 24 h
[5] = biological target: IKs (KCNE1) (Cavia porcellus, UniProt Q60409); assay: Inhibition of Iks tail current in guinea pig ventricular myocytes at 100 uM; format: cell-based, Ventricular myocyte
[6] = tested on: HEK293; assay: Downregulation of human ERG expression in HEK293 cells assessed as change in intensity of 135 kDa band at 1 to 10 uM after 24 hrs by Western blot analysis; format: ADME, cell-based; settings: hek293, 24 h
[7] = biological target: Potassium voltage-gated channel subfamily E member 1 (Oryctolagus cuniculus, UniProt Q28705); assay: Inhibition of Iks tail current in rabbit ventricular myocytes; format: cell-based, Ventricular myocyte
[8] = tested on: HEK293; assay: Reduction in human ERG-tail density expressed in HEK293 cells at 30 uM after 24 hrs by densitometric analysis; format: ADME, cell-based; settings: hek293, 24 h
[9] = Cmax in rabbit at 30 uM, iv administered as bolus dose; format: ADME, organism-based, Oryctolagus cuniculus; parameters: dose 30 uM, route intravenous; settings: in vivo
[10] = tested on: HEK293; assay: Downregulation of human ERG expression in HEK293 cells assessed as change in intensity of 155 kDa band at 1 to 10 uM after 24 hrs by Western blot analysis; format: ADME, cell-based; settings: hek293, 24 h
[11] = tested on: HEK293; assay: Downregulation of human ERG expression in HEK293 cells assessed as decrease in intensity of 135 kDa band at 30 uM after 24 hrs by Western blot analysis; format: ADME, cell-based; settings: hek293, 24 h
[12] = tested on: IKr; assay: Inhibition of Ikr tail current in guinea pig ventricular myocytes at 10 uM; format: cell-based, Cavia porcellus, Ventricular myocyte
[13] = Inhibition of Ikr tail current in rabbit ventricular myocytes; format: cell-based; settings: Oryctolagus cuniculus, Ventricular myocyte

Chain of IKs (KCNE1) (Q60409 whole entry): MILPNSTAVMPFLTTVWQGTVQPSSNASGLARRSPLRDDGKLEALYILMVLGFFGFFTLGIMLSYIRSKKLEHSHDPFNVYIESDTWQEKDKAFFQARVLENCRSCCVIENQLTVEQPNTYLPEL
Chain of Potassium voltage-gated channel subfamily E member 1 (Q28705 whole entry): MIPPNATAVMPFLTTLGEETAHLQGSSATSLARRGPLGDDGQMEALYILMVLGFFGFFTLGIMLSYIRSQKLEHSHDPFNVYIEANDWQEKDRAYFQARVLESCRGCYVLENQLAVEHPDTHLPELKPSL

COc1cc2c(cc1O)[C@@H](Cc1ccc(O)c(Oc3ccc(C[C@@H]4c5cc(OC)c(OC)cc5CCN4C)cc3)c1)N(C)CC2 [DARUISOLINE]
Activity [1]: Toxic
Cmax at 30 µM [2]: 1700 nM
Activity [3]: Toxic
Activity [4]: Toxic
inhibition at 100 µM [5]: 50%
Activity [6]: Non-toxic
IC50 [7]: 52.5 µM
Activity [8]: Toxic
Cmax at 30 µM [9]: 1700 nM
Activity [10]: Non-toxic
Activity [11]: Toxic
inhibition at 10 µM [12]: 39%
IC50 [13]: 19.9 µM

From ChEMBL document CHEMBL2216747, “Effect of daurisoline on HERG channel electrophysiological function and protein expression” (J Nat Prod, 2012)
